From article PMC9916685, “Discovery of Small Molecule COX-1 and Akt Inhibitors as Anti-NSCLC Agents Endowed with Anti-Inflammatory Action” (International Journal of Molecular Sciences, 2023)

Columns and labels:
[1] = system: COX-2; conditions: cited from earlier work
[2] = system: COX-1; conditions: cited from earlier work
[3] = system: A549 cells; test: Annexin V-FITC/PI flow cytometry-based apoptosis detection; conditions: A549, 24 h; for percentage of A549 cells undergoing apoptosis (early and late): sum of early and late
[4] = system: A549 human lung adenocarcinoma cells; test: MTT cytotoxicity assay, A549 cells; format: cell-based; conditions: mean ± SD
Description: (§1) A549 human lung adenocarcinoma and L929 mouse fibroblast cell lines were obtained from American Type Culture Collection (ATCC) (Manassas, VA, USA). Both cell lines were cultured, and drug treatments were carried out as previously reported.
(§2) MTT assay was conducted as previously explained in the literature with small modifications. Cisplatin was used as a positive control. The assay was performed in triplicate. IC50 data (µM) were expressed as mean ± SD.

[5] = system: Akt; test: Akt Colorimetric In-Cell ELISA in A549 cells; format: cell-based, human; conditions: 24 h, mean ± SD, read-out: Akt inhibition IC50 in A549 cells
Description: The assay was performed in triplicate. IC50 data (µM) were expressed as mean ± SD.

[6] = LPS-induced sepsis model, serum ALT and AST levels; format: in vivo, Sprague Dawley rats; conditions: rat serum, 24 h after LPS; 3b, 4a 10 mg/kg/day, indomethacin 5 mg/kg by gastric intubation six days; mean ± SD, n = 8
Description: (§3) Male albino Sprague Dawley rats (~250–300 g) were procured from the Medical and Surgical Experimental Animals Application and Research Center of Eskisehir Osmangazi University (ESOGU). In the animal house, the rats were housed in stainless steel cages under standard atmospheric conditions at 22 ± 1 °C and exposed to 12 h/12 h light/dark cycle. Food and water were given ad libitum. All experiments and protocols reported in this work were approved by ESOGU Animal Experiments Local Ethics Committee (10 December 2018/700).
(§4) Compounds 3b, 4a, and indomethacin (Sigma-Aldrich, St. Louis, MO, USA) were dissolved in 5% dimethyl sulfoxide (DMSO) and then diluted. The final DMSO concentration in the solution was 0.5% (v/v). The agents were administered by gastric intubation.
(§5) Rats were randomly divided into five groups (n = 8) as control group, LPS group, test groups (3b and 4a), and reference group. 0.5% DMSO was used as control solution for LPS group. Indomethacin (5 mg/kg) was used as a reference agent. Control group (Group I) was fed with basal rat chow throughout the experimental period. LPS group (Group II) was fed with basal rat chow for six days (only 0.5% DMSO was administered by gastric intubation) and LPS was injected intraperitoneally in 0.9% sodium chloride solution only once on the 7th day. Groups III, IV, and V were fed with basal rat chow and compound 3b (10 mg/kg/day), compound 4a (10 mg/kg/day), and indomethacin were administered, respectively, by gastric intubation for six days. Then, LPS was injected intraperitoneally in 0.9% sodium chloride solution only once on the 7th day for three groups as well. After 24 h of LPS injection, all rats were sacrificed by ketamine (80 mg/kg) ve xylazine (10 mg/kg) anesthesia via intraperitoneal route. Blood samples were collected via cardiac puncture in tubes containing gel for obtaining serum.
Serum ALT and AST levels were determined using enzyme-based Roche Diagnostics kit in Roche Modular Systems analyzer by photometric assay based on the manufacturer’s instructions. The other serum samples were stored at −80 °C (Thermo Electron, Waltham, MA, USA) for subsequent analyses of MPO and NO levels.

[7] = system: myeloperoxidase (MPO); test: LPS-induced sepsis model, serum MPO levels; format: in vivo, Sprague Dawley rats; conditions: for change of MPO activity compared to the LPS group: in words, LPS-induced sepsis, rats; for MPO (U/L): rat serum, 24 h after LPS 1 mg/kg i.p., 3b, 4a 10 mg/kg/day, indomethacin 5 mg/kg by gastric intubation for six days, mean ± SD, n = 8
Description: as §3, §4, §5
Suzuki’s assay was performed with slight modifications. The rate of MPO-catalyzed oxidation of 3,3′,5,5′-tetramethylbenzidine (TMB) was followed by recording the absorbance increase at 655 nm for 5 min. Taking into account the linear phase of the reaction, the absorbance change was measured per minute. The enzyme activity was expressed as the amount of the enzyme producing one absorbance change per minute under assay conditions.

[8] = system: nitric oxide (NO); test: LPS-induced sepsis model, serum NO levels; format: in vivo, Sprague Dawley rats; conditions: rat serum, 24 h after LPS; 3b, 4a 10 mg/kg/day, indomethacin 5 mg/kg by gastric intubation six days; n = 8
Description: as §3, §4, §5
Nitrate and nitrite, which represent the best index of the entire NO production, are the stable end products of NO in vivo. Nitrate in serum was assayed by a slight modification of the Cd-reduction method as reported by Cortas and Wakid.

[9] = biological target: T1, COX-1 (Ovis aries, UniProt P05979); test: COX (ovine) colorimetric inhibitor screening assay, COX-1; format: biochemical; conditions: for IC50: ovine COX-1, colorimetric, triplicate, mean ± SD; for SI (IC50 for COX-1/IC50 for COX-2): selectivity index
T1 construct: purchased Cayman
T1 sequence (P05979 25-600): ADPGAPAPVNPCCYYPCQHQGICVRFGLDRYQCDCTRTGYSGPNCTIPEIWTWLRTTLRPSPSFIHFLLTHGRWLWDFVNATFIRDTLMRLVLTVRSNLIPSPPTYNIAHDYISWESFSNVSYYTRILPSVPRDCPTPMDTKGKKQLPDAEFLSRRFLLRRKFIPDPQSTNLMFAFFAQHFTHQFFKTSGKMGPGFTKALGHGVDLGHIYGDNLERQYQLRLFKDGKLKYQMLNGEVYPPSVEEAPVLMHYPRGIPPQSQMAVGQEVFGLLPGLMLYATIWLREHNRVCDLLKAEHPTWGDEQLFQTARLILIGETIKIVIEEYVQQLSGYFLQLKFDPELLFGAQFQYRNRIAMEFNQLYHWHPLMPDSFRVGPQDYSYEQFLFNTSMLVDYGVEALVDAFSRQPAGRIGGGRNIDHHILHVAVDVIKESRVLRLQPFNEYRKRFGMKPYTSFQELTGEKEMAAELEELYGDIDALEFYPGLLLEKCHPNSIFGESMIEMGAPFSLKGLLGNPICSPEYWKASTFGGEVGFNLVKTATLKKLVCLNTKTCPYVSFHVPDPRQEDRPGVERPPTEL
Description: (§6) COX (ovine) Colorimetric Inhibitor Screening Assay (Cayman, Ann Arbor, MI, USA) was conducted to detect the peroxidase component of COX-1 and COX-2 according to the manufacturer’s instructions. The assay was performed in triplicate. Half maximal inhibitory concentration (IC50) data (µM) were expressed as mean ± SD.

[10] = system: L929 mouse fibroblast (normal) cells; test: MTT cytotoxicity assay, L929 normal cells; format: cell-based; conditions: for IC50: MTT, L929 mouse fibroblast cells, mean ± SD; for cytotoxicity against L929 cells at effective concentrations: in words, at concentrations effective for COX-1 inhibition
Description: as §1, §2

[11] = biological target: T2, COX-2 (Ovis aries, UniProt P79208); test: COX (ovine) colorimetric inhibitor screening assay, COX-2; format: biochemical; conditions: ovine COX-2, colorimetric, triplicate, mean ± SD
T2 construct: purchased Cayman
T2 sequence (P79208 17-603): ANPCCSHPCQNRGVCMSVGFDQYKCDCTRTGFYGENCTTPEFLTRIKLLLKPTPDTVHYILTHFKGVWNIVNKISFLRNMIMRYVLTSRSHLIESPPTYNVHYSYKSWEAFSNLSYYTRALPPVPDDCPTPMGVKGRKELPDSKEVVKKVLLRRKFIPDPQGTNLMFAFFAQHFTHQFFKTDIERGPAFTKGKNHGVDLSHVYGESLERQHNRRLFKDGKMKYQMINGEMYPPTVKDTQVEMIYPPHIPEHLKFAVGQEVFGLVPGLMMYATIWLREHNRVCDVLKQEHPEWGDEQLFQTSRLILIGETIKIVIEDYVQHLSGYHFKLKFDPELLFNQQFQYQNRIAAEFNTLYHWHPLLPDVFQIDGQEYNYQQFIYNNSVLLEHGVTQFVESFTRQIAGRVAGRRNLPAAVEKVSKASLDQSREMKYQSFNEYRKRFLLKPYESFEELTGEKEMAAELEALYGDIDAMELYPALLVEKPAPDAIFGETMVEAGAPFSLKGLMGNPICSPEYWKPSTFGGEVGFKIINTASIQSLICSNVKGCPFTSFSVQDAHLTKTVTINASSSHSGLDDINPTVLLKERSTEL
Description: as §6

[12] = system: Akt; design: method as in doi:10.2174/1570180817999200618163507; conditions: 5RP7 H-ras oncogene transformed rat embryonic fibroblast cell line; cited from earlier work

## N#Cc1ccc(C(=O)C=Cc2c[nH]c3ccc(Br)cc23)cc1 [3-(5-bromo-1H-indol-3-yl)-1-(4-cyanophenyl)prop-2-en-1-one]
[1]
  COX-2 IC50: 9.50 µg/mL
[2]
  COX-1 IC50: 8.10 µg/mL

## COc1ccc2[nH]cc(C=CC(=O)c3ccc(S(C)(=O)=O)cc3)c2c1 [3-(5-methoxy-1H-indol-3-yl)-1-(4-(methylsulfonyl)phenyl)prop-2-en-1-one]
[2]
  COX-1 IC50: 8.60 µg/mL

## N#Cc1ccc(Oc2ccc(C=NNC(=S)Nc3ccc(S(=O)(=O)N4CCCCC4)cc3)cc2)cc1 [4-[4-(piperidin-1-ylsulfonyl)phenyl]-1-[4-(4-cyanophenoxy)benzylidene]thiosemicarbazide]
[2]
  IC50: 1.89 µM

## O=[N+]([O-])c1ccc(Oc2ccc(C=NNC(=S)Nc3ccc(S(=O)(=O)N4CCCCC4)cc3)cc2)cc1 [4-[4-(piperidin-1-ylsulfonyl)phenyl]-1-[4-(4-nitrophenoxy)benzylidene]thiosemicarbazide]
[1]
  IC50: 12.6 µM
[2]
  IC50: 13.4 µM

## N.N.[Cl][Pt][Cl] [Cisplatin, reference compound]
[3]; compound at IC50
  Early Apoptosis (%): 2.43%
  Late Apoptosis (%): 2.03%
  Necrosis (%): 2.34%
  percentage of A549 cells undergoing apoptosis (early and late): 4.46%
[3]; compound at IC50/2
  Early Apoptosis (%): 3.69%
  Late Apoptosis (%): 2.88%
  Necrosis (%): 0.72%
  percentage of A549 cells undergoing apoptosis (early and late): 6.57%
[4]
  IC50: 22.7 ± 4.04 µM
[5]
  IC50: 9.3 ± 2.55 µM

## O=C(Cc1c[nH]c2ccccc12)NN=Cc1ccc(N2CCOCC2)cc1 [Compound 3b, 2-(1H-Indol-3-yl)-N′-(4-morpholinobenzylidene)acetohydrazide]
[6]
  ALT (U/L): 50.25 ± 21.86 U/L
  AST (U/L): 114.90 ± 22.04 U/L
[3]; compound at IC50
  Early Apoptosis (%): 6.84%
  Late Apoptosis (%): 6.01%
  Necrosis (%): 0.48%
  percentage of A549 cells undergoing apoptosis (early and late): 12.85%
[3]; compound at IC50/2
  Early Apoptosis (%): 5.89%
  Late Apoptosis (%): 5.78%
  Necrosis (%): 0.36%
  percentage of A549 cells undergoing apoptosis (early and late): 11.67%
[4]; Homo sapiens
  IC50: 89.7 ± 10.8 µM
[5]
  IC50: 32.5 ± 4.95 µM
[7]
  change of MPO activity compared to the LPS group: slightly decreased
  MPO (U/L): 1.50 ± 0.81 U/L
[8]
  NO level, 25% Percentile: 0.316 µmol/L
  NO level, 75% Percentile: 2.772 µmol/L
  NO level, Median: 0.667 µmol/L
other
  melting point: 306 to 307 °C
[9]
  IC50: 8.9 ± 0.14 µM
  SI (IC50 for COX-1/IC50 for COX-2): 0.13
[10]
  IC50: 177 ± 5.77 µM
  cytotoxicity against L929 cells at effective concentrations: did not show cytotoxicity
[11]
  IC50: 71 ± 1.41 µM

## O=C(Cc1c[nH]c2ccccc12)NNC(=S)Nc1ccc(Br)cc1 [Compound 4a, 4-(4-Bromophenyl)-1-[2-(1H-indol-3-yl)acetyl]thiosemicarbazide]
[6]
  ALT (U/L): 48.29 ± 26.88 U/L
  AST (U/L): 132.30 ± 37.06 U/L
[3]; compound at IC50/2
  Early Apoptosis (%): 7.07%
  Late Apoptosis (%): 6.62%
  Necrosis (%): 0.60%
[3]; compound at IC50/4
  Early Apoptosis (%): 7.34%
  Late Apoptosis (%): 5.19%
  Necrosis (%): 0.37%
[4]; Homo sapiens
  IC50: 179 ± 77.6 µM
[5]
  IC50: 45.3 ± 6.51 µM
[7]
  change of MPO activity compared to the LPS group: significantly decreased
  MPO (U/L): 0.84 ± 0.26 U/L
[8]
  NO level, 25% Percentile: 1.369 µmol/L
  NO level, 75% Percentile: 4.0 µmol/L
  NO level, Median: 2.509 µmol/L
other
  melting point: 187 to 189 °C
[9]
  IC50: 10 ± 0.13 µM
  SI (IC50 for COX-1/IC50 for COX-2): 0.13
[10]
  IC50: 84 ± 19.7 µM
  cytotoxicity against L929 cells at effective concentrations: did not show cytotoxicity
[11]
  IC50: 76.5 ± 6.36 µM

## COc1ccc2c(c1)c(CC(=O)O)c(C)n2C(=O)c1ccc(Cl)cc1 [Indomethacin, reference compound]
[6]
  ALT (U/L): 44.00 ± 14.64 U/L
  AST (U/L): 123.50 ± 32.14 U/L
[7]
  MPO (U/L): 1.06 ± 0.73 U/L
[8]
  NO level, 25% Percentile: 0.667 µmol/L
  NO level, 75% Percentile: 3.123 µmol/L
  NO level, Median: 1.281 µmol/L

## COc1ccc(-c2ccnc(SCC(=O)NN=Cc3ccccc3)n2)cc1 [N′-benzylidene-2-[(4-(4-methoxyphenyl)pyrimidin-2-yl)thio]acetohydrazide]
[12]
  inhibition of Akt IC50: 0.50 µg/mL
